Assay results as given in patent US20070066801A1 (priority 2003, published 2007).

Tested on: mutant F. novicida knock-outs
Assay type: binding, Francisella novicida

TSITPWFFLSRP [phage 4-4-2]
expected binding of phage to knock-out mutants inactivated for the cell surface marker: absence of specific binding
